Activity calls are given as the source filed them. The calls are words filed in the database; no cut-off is given here.
Columns and labels:
NCI-H1975 [1] = test: Antiproliferative activity against human NCI-H1975 cells overexpressing c-Met and EGFR assessed as reduction in cell viability incubated for 72 hrs by MTT assay; type: functional, cell-based; conditions: NCI-H1975, 72 h
A549 [2] = test: Induction of apoptosis in human A549 cells overexpressing c-MET assessed as increase in green fluorescence intensity incubated for 24 hrs by JC-1 staining based fluorescence inverted microscopic analysis; type: functional, cell-based; conditions: dose 1-2.5 µM
A549 [3] = test: Induction in apoptosis in human A549 cells overexpressing c-MET assessed as early apoptotic cells at 1 uM incubated for 24 hrs by Annexin V-FITC/Propidium Iodide staining based flow cytometry analysis (reference value: 7.27 %); type: functional
A549 [4] = test: Induction in apoptosis in human A549 cells overexpressing c-MET assessed as early apoptotic cells at 2.5 uM incubated for 24 hrs by Annexin V-FITC/Propidium Iodide staining based flow cytometry analysis (reference value: 7.27 %); type: functional
A549 [5] = test: Induction in apoptosis in human A549 cells overexpressing c-MET assessed as necrotic cells at 2.5 uM incubated for 24 hrs by Annexin V-FITC/Propidium Iodide staining based flow cytometry analysis (reference value: 3.22 %); type: functional
NCI-H1975 [6] = test: Induction in apoptosis in human NCI-H1975 cells assessed as viable cells at 1 uM incubated for 24 hrs by Annexin V-FITC/Propidium Iodide staining based flow cytometry analysis (reference value: 91.58 %); type: functional; conditions: read-out: Activity
L02 [7] = test: Induction in apoptosis in human L02 cells assessed as late apoptotic cells at 1 uM incubated for 24 hrs by Annexin V-FITC/Propidium Iodide staining based flow cytometry analysis (reference value: 0.36 %); type: toxicity, cell-based; conditions: l02, 24 h
[8] = Induction in apoptosis in human L02 cells assessed as viable cells at 2.5 uM incubated for 24 hrs by Annexin V-FITC/Propidium Iodide staining based flow cytometry analysis (reference value: 92.75 %); type: toxicity, cell-based; conditions: read-out: Activity
L02 [9] = test: Induction in apoptosis in human L02 cells assessed as necrotic cells at 2.5 uM incubated for 24 hrs by Annexin V-FITC/Propidium Iodide staining based flow cytometry analysis (reference value: 6.63 %); type: toxicity, cell-based; conditions: l02, 24 h
A549 [10] = test: Induction of cell cycle arrest in human A549 cells overexpressing c-MET assessed as accumulation of cells at G1/G0 phase at 1 uM incubated for 24 hrs by RNase A/propidium iodide staining based flow cytometric analysis (reference value: 49.24 %); type: functional
A549 [11] = test: Induction of cell cycle arrest in human A549 cells overexpressing c-MET assessed as accumulation of cells at G2/M phase at 1 uM incubated for 24 hrs by RNase A/propidium iodide staining based flow cytometric analysis (reference value: 12.41 %); type: functional
[12] = target: Vascular endothelial growth factor receptor 3 (Homo sapiens) (UniProt P35916); test: Inhibition of FLT4 (unknown origin) at 10 uM
[13] = target: Receptor-type tyrosine-protein kinase FLT3 (Homo sapiens) (UniProt P36888); test: Inhibition of FLT3 (unknown origin) at 10 uM
[14] = target: Fibroblast growth factor receptor 3 (Homo sapiens) (UniProt P22607); test: Inhibition of FGFR3 (unknown origin) at 10 uM
[15] = target: Serine/threonine-protein kinase Nek2 (Homo sapiens) (UniProt P51955); test: Inhibition of NEK2 (unknown origin) at 10 uM
[16] = target: Fibroblast growth factor receptor 2 (Homo sapiens) (UniProt P21802); test: Inhibition of FGFR2 (unknown origin) at 10 uM
[17] = target: Mitogen-activated protein kinase 1 (Homo sapiens) (UniProt P28482); test: Inhibition of MAPK1 (unknown origin) at 10 uM
[18] = Acute toxicity in KM mouse assessed as effect on total protein level at 100 mg/kg, IG qd administered for 7 days by automatic biochemical analyzer; type: organism-based; conditions: in vivo, po, 168 h, time 7 day
[19] = Acute toxicity in KM mouse assessed as cell damage or necrosis in lung at 100 mg/kg, IG qa administered for 7 days and measured on day 8 by hematoxylin and eosin staining based assay; type: organism-based; conditions: in vivo, po, 192 h, time 8 day
A549 [20] = test: Antitumor activity against human A549 cells overexpressing c-MET xenografted in BALB/c nude mouse assessed as reduction in tumor volume at 60 mg/kg, IG qod measured for 24 days; type: functional, organism-based; conditions: time 24.0 day
A549 [21] = test: Inhibition of colony formation in human A549 cells overexpressing c-MET at 1 uM preincubated for 48 hrs followed by media replacement for every 2 days for 14 days by crystal violet staining based microscopic analysis relative to control; type: functional

Sequence of Serine/threonine-protein kinase Nek2 (Homo sapiens) (P51955 whole entry): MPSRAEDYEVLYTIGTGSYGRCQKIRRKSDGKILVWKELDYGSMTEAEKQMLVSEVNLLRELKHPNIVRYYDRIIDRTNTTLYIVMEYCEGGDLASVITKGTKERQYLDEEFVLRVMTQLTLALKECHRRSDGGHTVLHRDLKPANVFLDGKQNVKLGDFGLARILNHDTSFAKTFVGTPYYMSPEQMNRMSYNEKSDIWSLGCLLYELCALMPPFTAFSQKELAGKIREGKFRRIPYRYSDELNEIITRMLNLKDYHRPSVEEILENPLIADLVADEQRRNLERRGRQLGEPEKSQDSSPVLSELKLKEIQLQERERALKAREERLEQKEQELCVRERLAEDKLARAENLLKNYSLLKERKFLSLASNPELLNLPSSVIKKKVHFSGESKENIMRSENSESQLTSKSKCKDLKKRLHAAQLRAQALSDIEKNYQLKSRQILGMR
Sequence of Mitogen-activated protein kinase 1 (Homo sapiens) (P28482 whole entry): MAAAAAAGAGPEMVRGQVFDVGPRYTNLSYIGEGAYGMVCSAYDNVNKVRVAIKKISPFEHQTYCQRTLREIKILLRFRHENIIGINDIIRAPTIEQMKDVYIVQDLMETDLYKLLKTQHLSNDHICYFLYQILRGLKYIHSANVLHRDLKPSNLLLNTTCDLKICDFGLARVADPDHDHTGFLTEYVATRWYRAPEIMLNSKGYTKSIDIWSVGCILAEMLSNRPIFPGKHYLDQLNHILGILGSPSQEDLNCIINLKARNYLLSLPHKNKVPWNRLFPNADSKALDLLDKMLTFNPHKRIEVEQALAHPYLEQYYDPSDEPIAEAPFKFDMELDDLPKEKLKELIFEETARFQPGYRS
Sequence of Fibroblast growth factor receptor 2 (Homo sapiens) (P21802 22-821 limits assumed): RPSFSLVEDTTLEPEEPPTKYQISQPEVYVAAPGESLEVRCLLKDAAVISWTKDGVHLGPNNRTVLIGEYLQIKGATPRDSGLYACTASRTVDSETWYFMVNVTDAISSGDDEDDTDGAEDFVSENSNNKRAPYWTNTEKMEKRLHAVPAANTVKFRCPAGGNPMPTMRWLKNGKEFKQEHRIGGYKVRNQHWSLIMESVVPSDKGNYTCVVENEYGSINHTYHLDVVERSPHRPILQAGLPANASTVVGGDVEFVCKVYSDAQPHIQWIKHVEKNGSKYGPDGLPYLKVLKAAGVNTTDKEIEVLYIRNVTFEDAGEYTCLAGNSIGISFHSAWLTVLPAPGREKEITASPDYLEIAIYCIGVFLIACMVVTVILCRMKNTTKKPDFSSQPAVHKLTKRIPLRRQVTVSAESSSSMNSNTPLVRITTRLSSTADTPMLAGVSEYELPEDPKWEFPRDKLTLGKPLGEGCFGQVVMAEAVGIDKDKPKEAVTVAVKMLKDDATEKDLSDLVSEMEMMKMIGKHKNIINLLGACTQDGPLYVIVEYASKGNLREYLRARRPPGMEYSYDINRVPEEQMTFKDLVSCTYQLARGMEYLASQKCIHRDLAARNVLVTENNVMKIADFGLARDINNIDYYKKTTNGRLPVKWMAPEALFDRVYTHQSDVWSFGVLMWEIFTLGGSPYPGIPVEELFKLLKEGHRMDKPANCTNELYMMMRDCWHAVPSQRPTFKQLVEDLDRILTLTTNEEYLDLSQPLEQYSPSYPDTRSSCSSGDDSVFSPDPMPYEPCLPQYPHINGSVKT
Sequence of Receptor-type tyrosine-protein kinase FLT3 (Homo sapiens) (P36888 whole entry): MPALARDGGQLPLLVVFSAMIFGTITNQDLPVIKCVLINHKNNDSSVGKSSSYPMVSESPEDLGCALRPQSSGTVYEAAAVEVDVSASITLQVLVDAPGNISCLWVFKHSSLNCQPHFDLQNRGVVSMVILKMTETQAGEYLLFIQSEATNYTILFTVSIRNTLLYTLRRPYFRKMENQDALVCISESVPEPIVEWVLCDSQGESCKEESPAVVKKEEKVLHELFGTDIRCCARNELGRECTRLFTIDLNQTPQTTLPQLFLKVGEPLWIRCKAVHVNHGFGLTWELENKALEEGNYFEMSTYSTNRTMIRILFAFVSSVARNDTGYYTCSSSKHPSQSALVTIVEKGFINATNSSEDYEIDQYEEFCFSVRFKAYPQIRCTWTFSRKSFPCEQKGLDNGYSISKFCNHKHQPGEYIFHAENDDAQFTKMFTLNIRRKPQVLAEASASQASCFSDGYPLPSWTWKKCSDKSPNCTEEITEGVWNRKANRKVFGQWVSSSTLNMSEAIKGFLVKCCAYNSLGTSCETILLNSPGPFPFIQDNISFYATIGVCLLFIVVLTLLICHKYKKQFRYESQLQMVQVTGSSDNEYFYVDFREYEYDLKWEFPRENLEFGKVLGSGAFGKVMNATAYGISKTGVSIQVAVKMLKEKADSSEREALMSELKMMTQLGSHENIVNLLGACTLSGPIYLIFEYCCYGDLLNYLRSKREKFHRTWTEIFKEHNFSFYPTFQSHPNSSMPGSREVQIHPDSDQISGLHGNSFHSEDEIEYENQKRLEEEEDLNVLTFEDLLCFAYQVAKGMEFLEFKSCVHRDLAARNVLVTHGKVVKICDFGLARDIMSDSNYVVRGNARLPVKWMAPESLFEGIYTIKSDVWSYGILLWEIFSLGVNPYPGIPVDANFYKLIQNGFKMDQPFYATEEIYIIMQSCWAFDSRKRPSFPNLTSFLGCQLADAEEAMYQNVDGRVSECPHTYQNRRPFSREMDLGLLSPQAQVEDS
Sequence of Fibroblast growth factor receptor 3 (Homo sapiens) (P22607 23-806 limits assumed): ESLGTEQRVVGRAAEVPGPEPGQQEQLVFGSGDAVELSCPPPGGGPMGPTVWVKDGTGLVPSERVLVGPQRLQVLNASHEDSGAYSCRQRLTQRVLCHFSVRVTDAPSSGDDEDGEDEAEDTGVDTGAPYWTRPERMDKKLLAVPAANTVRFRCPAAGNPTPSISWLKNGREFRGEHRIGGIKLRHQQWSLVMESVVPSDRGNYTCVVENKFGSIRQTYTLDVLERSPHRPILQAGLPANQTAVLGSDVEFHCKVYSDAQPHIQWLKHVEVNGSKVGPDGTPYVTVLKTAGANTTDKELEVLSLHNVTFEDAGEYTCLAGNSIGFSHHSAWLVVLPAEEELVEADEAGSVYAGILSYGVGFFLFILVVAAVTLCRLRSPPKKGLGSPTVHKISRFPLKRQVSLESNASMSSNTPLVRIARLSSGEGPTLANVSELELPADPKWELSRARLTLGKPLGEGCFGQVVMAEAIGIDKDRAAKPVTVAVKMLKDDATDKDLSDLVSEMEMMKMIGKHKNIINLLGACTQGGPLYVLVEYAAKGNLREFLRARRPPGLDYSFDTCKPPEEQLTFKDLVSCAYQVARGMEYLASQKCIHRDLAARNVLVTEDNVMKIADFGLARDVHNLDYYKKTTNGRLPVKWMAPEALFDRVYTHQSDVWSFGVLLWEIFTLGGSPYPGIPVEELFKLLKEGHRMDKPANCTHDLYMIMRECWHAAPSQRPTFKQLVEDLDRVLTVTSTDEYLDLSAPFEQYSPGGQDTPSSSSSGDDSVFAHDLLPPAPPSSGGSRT
Sequence of Vascular endothelial growth factor receptor 3 (Homo sapiens) (P35916 whole entry): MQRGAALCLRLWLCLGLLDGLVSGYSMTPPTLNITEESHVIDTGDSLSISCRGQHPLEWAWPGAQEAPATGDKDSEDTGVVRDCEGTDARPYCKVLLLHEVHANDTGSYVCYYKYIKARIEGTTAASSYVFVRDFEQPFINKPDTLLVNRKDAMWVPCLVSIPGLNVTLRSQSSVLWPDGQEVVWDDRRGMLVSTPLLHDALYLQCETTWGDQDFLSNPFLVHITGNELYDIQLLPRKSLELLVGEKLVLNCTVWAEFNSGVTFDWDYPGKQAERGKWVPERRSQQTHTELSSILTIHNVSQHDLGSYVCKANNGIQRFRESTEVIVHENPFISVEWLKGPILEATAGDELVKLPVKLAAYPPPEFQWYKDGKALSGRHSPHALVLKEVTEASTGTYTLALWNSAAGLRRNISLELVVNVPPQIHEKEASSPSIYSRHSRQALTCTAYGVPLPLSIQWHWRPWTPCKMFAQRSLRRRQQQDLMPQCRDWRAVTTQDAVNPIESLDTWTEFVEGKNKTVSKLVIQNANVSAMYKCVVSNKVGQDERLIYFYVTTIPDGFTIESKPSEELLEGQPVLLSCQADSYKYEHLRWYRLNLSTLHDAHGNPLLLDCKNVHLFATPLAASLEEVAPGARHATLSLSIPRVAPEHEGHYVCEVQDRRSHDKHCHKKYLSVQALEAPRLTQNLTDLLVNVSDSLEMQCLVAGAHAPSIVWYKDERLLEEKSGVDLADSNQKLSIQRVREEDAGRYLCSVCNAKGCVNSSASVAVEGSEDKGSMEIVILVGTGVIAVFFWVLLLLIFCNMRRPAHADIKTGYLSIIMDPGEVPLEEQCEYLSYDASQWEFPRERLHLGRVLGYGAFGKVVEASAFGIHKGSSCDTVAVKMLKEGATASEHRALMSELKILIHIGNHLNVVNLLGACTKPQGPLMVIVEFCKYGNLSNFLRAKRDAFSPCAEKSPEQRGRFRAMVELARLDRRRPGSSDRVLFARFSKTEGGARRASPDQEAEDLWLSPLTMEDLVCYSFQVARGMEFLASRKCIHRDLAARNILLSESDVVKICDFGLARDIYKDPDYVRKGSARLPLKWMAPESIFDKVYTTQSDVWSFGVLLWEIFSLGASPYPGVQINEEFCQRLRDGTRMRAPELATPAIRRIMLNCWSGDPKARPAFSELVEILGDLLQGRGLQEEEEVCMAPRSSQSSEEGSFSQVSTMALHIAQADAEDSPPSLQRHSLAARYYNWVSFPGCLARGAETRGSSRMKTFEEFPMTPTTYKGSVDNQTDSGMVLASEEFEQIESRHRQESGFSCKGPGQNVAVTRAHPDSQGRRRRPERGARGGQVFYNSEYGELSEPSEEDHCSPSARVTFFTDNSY

With C=CC(=O)Nc1cc2c(Oc3ccc(NC(=O)n4c(=O)c(-c5ccccc5)c(C)n4C)cc3F)cccc2cc1OC the IC50 (NCI-H1975 [1]) was 1130 nM, the Activity (A549 [2]) was “Dose-Dependent Effect” and the Activity (A549 [3]) was 10.4%. The Activity (A549 [4]) was 10.44%, the Activity (A549 [5]) was 6.65% and the viability at 1 µM (NCI-H1975 [6]) was 88.2%. For the same compound, the Activity (L02 [7]) was 0.28%, the viability at 24 h, 2.5 µM [8] was 95% and the Activity (L02 [9]) was 4.53%. The Activity (A549 [10]) was 53.03%, the Activity (A549 [11]) was 11.29% and the inhibition [12] was “Active”. The inhibition [13] was “inactive”, the inhibition [14] was “inactive” and the inhibition [15] was “inactive”. For the same compound, the inhibition [16] was “inactive”, the inhibition [17] was “inactive” and the Activity [18] was “Non-Toxic”. The Activity [19] was “Non-Toxic”, the Activity (A549 [20]) was “Active” and the inhibition at 1 µM (A549 [21]) was about 50%.
